Tested on: SERCA 2a mRNA
Assay: Northern blot, SERCA 2a mRNA in heart
Type: in vivo, rat
Settings: FIG. 2b, compared to T4, p<0.001
Description: Seventy-nine male SIVZ rats were purchased from the breeder (Institut für Labortierkunde des Universität Zürich, Zürich, Switzerland). They were rendered hypothyroid by a single injection of [^131I]Na (100 μCi/rat) and before and throughout the experiment 0.02% 2-mercapto-1-methylimidazol (MMI) was added to drinking water. In order to have an euthyroid control group of similar weight and identical age, 10 rats received only MMI in the drinking water and 2 weeks before implanting the minipumps, MMI was withdrawn. Osmotic minipumps (secretion rate 0.25 μl/hour, duration 14 days) were implanted intraperitoneally (i.p.) 2 months after the injection of [^131I]Na. The minipumps were filled with T4 or Tetrac dissolved in 0.05 N NaOH, 2% BSA and 100,000 cpm [^125I]T4 or [^125I]Tetrac as control of their secretion rates. The infusion lasted 13 days. 0, 1.5, 4.5, 13.5 and 40.5 nmol Tetrac/day/100 g or 0.5, 1.5, 4.5 and 13.5 nmol T4/day/100 g bodyweight (BW) (n=4/dose) were infused. An euthyroid control group was included. The animals were weighed every 2 days. […]
The amount of labeled mRNA was quantified by scanning laser densitometry (Phosphorimager, Molecular Dynamics; Sunnyvale, USA). Variations in RNA loading and membrane transfer were corrected by densitometric quantification of a negative photograph of 28S and 18S ribosomal RNA bands from ethidium bromide stained RNA gels. […]

O=C(O)Cc1cc(I)c(Oc2cc(I)c(O)c(I)c2)c(I)c1 [Tetrac, 3,3′,5,5′-tetraiodothyroacetic acid]
SERCA 2a mRNA levels, response to increasing doses (in words): weak response
